Measurements: US11091749B2, “Deimmunized lysostaphin and methods of use” (TRUSTEES OF DARTMOUTH COLLEGE, priority 2014, dated 2021)
Read-outs that look alike come from different tables or passages of the source. Each block holds one compound with its values, some of them ahead of it. Where no end group is shown, it is not given here.

Assays:
Experiment in all cases: MHC II competition binding assay
[1] = target: T1, DRB1*1501 (Homo sapiens, UniProt P01903+P01911)
T1 construct: purchased Benaroya Research Institute (Seattle, Wash.)
Method: MHC Binding Assays. […] Briefly, 100 nM biotinylated control peptides composed of known peptide antigens for each MHC II allele were incubated in polypropylene 384-well plates with 50 nM purified recombinant MHC II protein and serial dilutions of LST or variant peptide fragments (100 μM to 10 nM). Peptide-MHC II complexes were captured from equilibrated solutions using the conformation specific anti-HLA-DR antibody L243 coated on high binding ELISA plates. Bound control peptide was quantified using the DELFIA streptavidin-Europium conjugate and time resolved fluorescence (SpectraMax Gemini Fluorescence Microplate Reader).

[2] = target: DRB1*0701 (Homo sapiens, UniProt P01903+P01911, A100R/A102G/A103Q/D57E/D86V/E43K/F76Y/K127E/L162R/M171V/P40G/Q125H/Q99D/R33Q/R42Y/R54Q/S133A/S66F/T210M/V115G/Y107V/Y59L/Y89S)
Method: (§1) MHC Binding Assays. MHC II competition binding assays were performed using a 384-well high throughput assay as previously described (Salvat, et al. (2014) supra). Binding assays were performed for the eight alleles: DRB1*0101, 0301, 0401, 0701, 0801, 1101, 1301, and 1501. Briefly, 100 nM biotinylated control peptides composed of known peptide antigens for each MHC II allele were incubated in polypropylene 384-well plates with 50 nM purified recombinant MHC II protein and serial dilutions of LST or variant peptide fragments (100 μM to 10 nM). Peptide-MHC II complexes were captured from equilibrated solutions using the conformation specific anti-HLA-DR antibody L243 coated on high binding ELISA plates. Bound control peptide was quantified using the DELFIA streptavidin-Europium conjugate and time resolved fluorescence (SpectraMax Gemini Fluorescence Microplate Reader).

[3] = target: T2, DRB1*0101 (Homo sapiens, UniProt P01903+P01911, A100R/D57E/F55L/F60I/F76Y/I96L/L162R/M171V/P40L/Q125E/R42F/V115G/Y59C)
T2 construct: purchased Benaroya Research Institute (Seattle, Wash.)
Method: as §1

[4] = target: DRB1*1301 (Homo sapiens, UniProt P01903+P01911, A100E/A169T/K41T/L162R/M171V/P40S/Q125H/Q178H/Q39Y/Q99D/R42S/S66N/T262R/W38E/Y61H)
Method: as §1

[5] = target: DRB1*0801 (Homo sapiens, UniProt P01903+P01911, A100R/A103L/A169T/D86S/F76Y/H45Y/I96F/K41T/L162R/M171V/P40S/Q125H/Q178H/Q39Y/Q99D/R218S/R42G/S66Y/V115G/W38E)
Method: as §1

[6] = target: T3, DRB1*0401 (Homo sapiens, UniProt P01903+P01911, A100K/A169T/F76Y/I96L/K127E/L162R/M171V/N62H/P40V/Q125Y/R42H/S133A/S149N/S66Y/V115G/V209L/W38E)
T3 construct: purchased Benaroya Research Institute (Seattle, Wash.)
Method: as §1

[7] = target: DRB1*1101 (Homo sapiens, UniProt P01903+P01911, A100R/A169T/A87E/I96F/K41T/L162R/M171V/P40S/Q125H/Q178H/Q39Y/Q99D/R42S/S66Y/T262R/V115G/W38E)
Method: as §1

[8] = target: T4, DRB1*0301 (Homo sapiens, UniProt P01903+P01911, A100K/A102G/A103R/A169T/F55Y/I96L/K41T/L162R/M171V/P40S/Q125H/Q178H/Q39Y/R42S/S66N/T106N/T262R/W38E/Y61H)
T4 construct: purchased Benaroya Research Institute (Seattle, Wash.)
Method: as §1

[9] = synthetic peptide competing with biotinylated control peptide, read-out: IC50 0801
[10] = synthetic peptide competing with biotinylated control peptide, read-out: IC50 0401

- binder class DRB1*1301 [4]: weakly
Compound: CSCC[C@H](NC(=O)[C@H](Cc1ccc(O)cc1)NC(=O)[C@H](Cc1c[nH]c2ccccc12)NC(=O)[C@H](CCC(N)=O)NC(=O)[C@H](CCCNC(=N)N)NC(=O)[C@H](Cc1c[nH]cn1)NC(=O)[C@@H](NC(=O)CN)C(C)C)C(=O)N[C@@H](Cc1c[nH]cn1)C(=O)N[C@@H](CC(C)C)C(=O)N[C@@H](CO)C(=O)N[C@@H](CCCCN)C(=O)N[C@@H](Cc1ccc(O)cc1)C(=O)N[C@@H](CC(N)=O)C(=O)N[C@H](C(=O)N[C@@H](CCCCN)C(=O)N[C@H](C(=O)NCC(=O)N[C@@H](CC(=O)O)C(=O)O)C(C)C)C(C)C [Design C3WT]
- binder class DRB1*1501 [1]: weak (weak if an IC50 value was in the 1-10 μM range)
- binder class DRB1*0701 [2]: strong (strong binder if an IC50 value of less than 0.1 μM was observed)
- binder class DRB1*0101 [3]: strong (strong binder if an IC50 value of less than 0.1 μM was observed)

- IC50 ([1]; DRB1*1501, read-out: IC50): > 250 µM
- IC50 ([5]; DRB1*0801, read-out: IC50): > 250 µM
- IC50 ([6]; DRB1*0401, read-out: IC50): > 250 µM
- IC50 ([7]; DRB1*1101, read-out: IC50): > 250 µM
- IC50 ([8]; DRB1*0301, read-out: IC50): > 250 µM
- IC50 ([3]; DRB1*0101, read-out: IC50): > 250 µM
- IC50 ([4]; DRB1*1301, read-out: IC50): > 250 µM
Compound: DHVEAGQQIGWSGSTGY [Peptide 939599]

- IC50 ([1]; DRB1*1501, read-out: IC50): < 0.01 µM
- IC50 ([5]; DRB1*0801, read-out: IC50): > 250 µM
- IC50 ([2]; DRB1*0701, read-out: IC50): 104 µM
- IC50 ([8]; DRB1*0301, read-out: IC50): > 250 µM
- IC50 ([3]; DRB1*0101, read-out: IC50): < 0.01 µM
- IC50 ([4]; DRB1*1301, read-out: IC50): > 250 µM
Compound: DYVEAGQQIGWSGSTGY [Peptide 95-99]

- IC50 [5, 9]: > 250 µM
- IC50 ([8]; synthetic peptide competing with biotinylated control peptide, read-out: IC50 0301): > 250 µM
Compound: GVDFFMNEGTPVKAISSGKIV [Design 141E]

Second part, the compound before the results:

Compound: Asn12Gly: full-length lysostaphin single point mutant
- binder class DRB1*0101 [3]: strong (strong binder if an IC50 value of less than 0.1 μM was observed)

Compound: Asn13His: full-length lysostaphin single point mutant
- binder class DRB1*1301 [4]: weak (weak if an IC50 value was in the 1-10 μM range)

Compound: DHVKAGQIIGWSGSTGY [Peptide Y93H]
- IC50 [1]: < 0.01 µM
- IC50 [5]: > 250 µM
- IC50 [6]: > 250 µM
- IC50 [7]: > 250 µM
- IC50 [8]: > 250 µM
- IC50 [4]: > 250 µM

Compound: DHVKAGQQIGWSGSTGY [Peptide 93_99]
- IC50 ([1]; DRB1*1501, read-out: IC50): < 0.01 µM
- IC50 ([5]; DRB1*0801, read-out: IC50): > 250 µM
- IC50 ([6]; DRB1*0401, read-out: IC50): < 0.01 µM
- IC50 ([7]; DRB1*1101, read-out: IC50): > 250 µM
- IC50 ([8]; DRB1*0301, read-out: IC50): > 250 µM
- IC50 ([3]; DRB1*0101, read-out: IC50): < 0.01 µM
- IC50 ([4]; DRB1*1301, read-out: IC50): > 250 µM

Compound: DYVEAGQIIGWSGSTGY [Peptide K95E]
- IC50 [1]: < 0.01 µM
- IC50 [6]: < 0.01 µM
- IC50 [3]: < 0.01 µM

Compound: DYVKAGQQIGWSGSTGY [Peptide I99Q]
- IC50 [5]: > 250 µM
- IC50 [8]: > 250 µM
- IC50 [4]: > 250 µM

Compound: GVDFFMNEGTPVHAISSGKIV [Design 41_46]
- IC50 [1]: < 0.01 µM
- IC50 [5]: > 250 µM
- IC50 [6]: < 0.01 µM
- IC50 [7]: < 0.01 µM
- IC50 [8]: > 250 µM
- IC50 [3]: < 0.01 µM
- IC50 [4]: > 250 µM

Compound: GVDFFMNIGTPVKAISSGKIV [Design C2WT]
- IC50 [5, 9]: > 250 µM
- IC50 [6, 10]: 13.7 µM
- IC50 ([4]; synthetic peptide competing with biotinylated control peptide, read-out: IC50 1301): 104 µM

Compound: GVHRQWYMHMSKYNVKVGD [Design L83M]
- IC50 [6, 10]: > 250 µM

Compound: HLHFQRMVGDFGNPTAQ [Peptide 212224]
- IC50 [1]: 24.2 µM
- IC50 [5]: > 250 µM
- IC50 [2]: > 250 µM
- IC50 [6]: 5.55 µM
- IC50 [7]: 13.4 µM
- IC50 [8]: 116 µM
- IC50 [3]: 0.18 µM
- IC50 [4]: > 250 µM
